Test results from patent US20210147371A1, “OXADIAZOLINE DERIVATIVES” (Bayer Aktiengesellschaft, priority 2018, published 2021).
Like-named read-outs stand apart in the source and are kept apart here.

Assay: Log P by HPLC on reversed phase columns (EEC directive 79/831 Annex V.A8)
Type: physicochemical
Experimental: Measurement of Log P values was performed according to EEC directive 79/831 Annex V.A8 by HPLC (High Performance Liquid Chromatography) on reversed phase columns with the following methods: • [^a]
If more than one Log P value is available within the same method, all the values are given and separated by “+”.
Calibration was done with straight-chain alkan2-ones (with 3 to 16 carbon atoms) with known Log P values (measurement of Log P values using retention times with linear interpolation between successive alkanones). Lambda-max-values were determined using UV-spectra from 200 nm to 400 nm and the peak values of the chromatographic signals.

[1] = method [a]: LC-UV, acidic range, 0.1% formic acid in water and acetonitrile, compounds of formula (I), read-out: Log P
[2] = reversed phase HPLC columns, method [a]: LC-UV, acidic range, 0.1% formic acid in water and acetonitrile, compounds of formula (I), read-out: Log P

Structure (SMILES): CC(=O)N1C(c2ccc(OC(=O)N(C)C)cc2)=NOC1C(F)(F)F (stereo not shown) [Compound I-16, 4-[Acetyl-5-(trifluoromethyl)-4,5-dihydro-1,2,4-oxadiazol-3-yl]phenyl dimethylcarbamate]
- chromatographic logP [1]: 2.62

Structure (SMILES): FC(F)(F)c1nc(-c2ccc3nn(Cc4ccccc4)cc3c2)no1 [IV-15, 2-Benzyl-5-[5-(trifluoromethyl)-1,2,4-oxadiazol-3-yl]-1H-indazole]
- chromatographic logP (reversed phase HPLC columns, method [a]: LC-UV, acidic range, 0.1% formic acid in water and acetonitrile, intermediates of formula (IV), read-out: LogP): 4.03

Structure (SMILES): CN(C)C(=O)Oc1ccc(C2=NOC(C(F)(F)F)N2)cc1 (stereo not shown) [Compound I-03, 4-[5-(Trifluoromethyl)-4,5-dihydro-1,2,4-oxadiazol-3-yl]phenyl dimethylcarbamate]
- chromatographic logP [1]: 2.19

Structure (SMILES): CN(C)C(=O)Oc1ccc(-c2noc(C(F)(F)F)n2)cc1 [IV-05, 4-[5-(Trifluoromethyl)-1,2,4-oxadiazol-3-yl]phenyl dimethylcarbamate]
- chromatographic logP (method [a]: LC-UV, acidic range, 0.1% formic acid in water and acetonitrile, intermediates of formula (IV), read-out: LogP): 3.37

Structure (SMILES): FC(F)(F)C1NC(c2ccc3nn(Cc4ccccc4)cc3c2)=NO1 (stereo not shown) [Compound I-24, 2-Benzyl-5-[(trifluoromethyl)-4,5-dihydro-1,2,4-oxadiazol-3-yl]-2H-indazole]
- chromatographic logP [2]: 2.69

Structure (SMILES): FC(F)(F)C1NC(c2ccc3c(cnn3Cc3ccccc3)c2)=NO1 (stereo not shown) [Compound I-23, 1-Benzyl-5-[(trifluoromethyl)-4,5-dihydro-1,2,4-oxadiazol-3-yl]-2H-indazole]
- chromatographic logP [2]: 3

Structure (SMILES): FC(F)(F)c1nc(-c2ccc3c(cnn3Cc3ccccc3)c2)no1 [IV-17, 1-Benzyl-5-[5-(trifluoromethyl)-1,2,4-oxadiazol-3-yl]-1H-indazole]
- chromatographic logP: 4.39
